Data reported in patent publication US20250109141A1, “BRD4 PROTEIN DEGRADER COMPOUND, AND PREPARATION METHOD AND USE THEREOF” (Miracure Biotechnology Limited, priority 2023, published 2025).
Read-outs that look alike come from different tables or passages of the source.

Key:
22RV1 = assay: Cell proliferation assay (CellTiterGlo, 72 h), 22RV1; assay type: cell-based; conditions: Homo sapiens, read-out: 22Rv1 ATP average IC50
Method: All incubations were performed at 37° C. in a humidified carbon dioxide incubator.
(§1) The cells were seeded in a 96-well plate (white wall/transparent bottom) at 5000 cells/well and cultured overnight.
(§2) On day 2, A stock solution of the compound at a concentration of 10 mM was subjected to an 8-fold serial dilution to obtain 8 concentration points. 2 μL of the compound solution at each concentration point was added to 98 μL of fresh medium, and the mixture was mixed homogeneously. Then, 5 μL of the compound solution diluted in the medium at each concentration point was added to 100 μL of overnight medium containing the cells, and 2 replicates were set for each concentration. The mixture was cultured for 72 h.
(§3) After 72 h of compound treatment, the plate was equilibrated to room temperature, 100 μL of CellTiterGlo (Promega) was added. The mixture was mixed homogeneously for 2 min, left to stand at room temperature for 10 min, and then read for luminescence values on a SpectraMax M5 microplate reader to evaluate cell viability. The positive control was 1% Tween-20 and the negative control was 0.1% DMSO. IC50 was generated by 4-parameter non-linear regression fitting in GraphPad Prism.

LNCaP = assay: Cell proliferation assay (CellTiterGlo, 72 h), LNCaP; assay type: cell-based; conditions: Homo sapiens, LNCap cells, 72 h compound treatment, read-out: LNCap ATP average IC50
Method: The cell line used was 22RV1 or LNCaP, and the medium was RPMI-1640 containing 10% FBS and antibiotics. All incubations were performed at 37° C. in a humidified carbon dioxide incubator.
On day 1, cells were digested with 0.25% trypsin (containing EDTA) and collected by centrifugation.
as §1, §2, §3

BRD4 [1] = biological target: T1, BRD4 (Homo sapiens, UniProt O60885); assay: BRD4 degradation assay (Western-blot / Simple Western) in 22RV1; conditions: 22RV1 cells, target content as percentage of control (DMSO = 100%)
BRD4 [2] = biological target: T1, BRD4; assay: BRD4 degradation assay (Western-blot / Simple Western) in LNCap; assay type: cell-based; conditions: LNCap cells, target content as percentage of control (DMSO = 100%)
Method: The mixture was centrifuged for 5 min. […] The PVDF membrane was cut and labeled. […] Images were acquired and analyzed.

[3] = 22Rv1 cells, 72 h compound treatment, CellTiterGlo

| SMILES | IC50 (22RV1; [3]) [nM] | IC50 (LNCaP) [nM] | BRD4 degradation of 22RV1 (200 nM 5 h) (BRD4 [1]) | IC50 (22RV1; 22Rv1, 72 h) [nM] | BRD4 degradation of LNCap (200 nM 5 h) (BRD4 [2]) |
| --- | --- | --- | --- | --- | --- |
| Cc1sc2c(c1C)C(c1ccc(/C=C/CNO)cc1)=N[C@@H](CC(=O)OC(C)(C)C)c1nnc(C)n1-2 [Compound 9011] | < 50 | < 50 | A (A<20%) |  |  |
| CONC/C=C/c1ccc(C2=N[C@@H](CC(=O)OC(C)(C)C)c3nnc(C)n3-c3sc(C)c(C)c32)cc1 [Compound 9065] | < 50 | < 50 | B (20%<B<50%) |  |  |
| Cc1sc2c(c1C)C(c1ccc(-c3ccc(CN)o3)cc1)=N[C@@H](CC(=O)OC(C)(C)C)c1nnc(C)n1-2 [Compound 9071] | 50 to 200 | 50 to 200 | C (50%<C<80) |  |  |
| COc1ccc2c(c1)C(c1ccc(/C=C/CNO)cc1)=N[C@@H](CC(=O)OC(C)(C)C)c1nnc(C)n1-2 [Compound 9077] |  | < 50 | A (A<20%) | < 50 |  |
| CONCC#Cc1ccc(C2=N[C@@H](CC(=O)OC(C)(C)C)c3nnc(C)n3-c3ccc(OC)cc32)cc1 [Compound 9078] |  | < 50 | B (20%<B<50%) | < 50 |  |
| CONC/C=C/c1ccc(C2=N[C@@H](CC(=O)OC(C)(C)C)c3nnc(C)n3-c3ccc(OC)cc32)cc1 [Compound 9079] |  | < 50 | A (A<20%) | < 50 |  |
| COc1ccc2c(c1)C(c1ccc(C#CCN)cc1)=N[C@@H](CC(=O)OC(C)(C)C)c1nnc(C)n1-2 [Compound 9080] |  | 50 to 200 | B (20%<B<50%) | < 50 |  |
| Cc1noc2c1-c1ccccc1C(c1ccc(C#CCN)cc1)=N[C@H]2CC(=O)OC(C)(C)C [Compound 9098] | > 500 | > 500 |  |  |  |
| Cc1sc2c(c1C)C(c1ccc(C#CCN)cc1)=N[C@@H](CC(=O)OC1(C)CC1)c1nnc(C)n1-2 [Compound 9103] |  | < 50 | B (20%<B<50%) | < 50 |  |
| CNC(=O)C#Cc1ccc(C2=N[C@@H](CC(=O)OC(C)(C)C)c3nnc(C)n3-c3sc(C)c(C)c32)cc1 [Compound 9104] | < 50 |  | D (80%<D<100%) |  |  |
| CC(=O)N(O)C/C=C/c1ccc(C2=N[C@@H](CC(=O)OC(C)(C)C)c3nnc(C)n3-c3sc(C)c(C)c32)cc1 [Compound 9109] | 200 to 500 | 50 to 200 | C (50%<C<80) |  |  |
| Cc1sc2c(c1C)C(c1ccc(/C=C/CNC(=N)N)cc1)=N[C@@H](CC(=O)OC(C)(C)C)c1nnc(C)n1-2 [Compound 9110] | > 500 | > 500 |  |  |  |
| Cc1sc2c(c1C)C(c1ccc(C#CCNC(=N)NO)cc1)=N[C@@H](CC(=O)OC(C)(C)C)c1nnc(C)n1-2 [Compound 9111] | 200 to 500 | 50 to 200 | D (80%<D<100%) |  |  |
| Cc1sc2c(c1C)C(c1ccc(C#CCN)cc1)=N[C@@H](CC(=O)OCC1(C)COC1)c1nnc(C)n1-2 [Compound 9112] |  | 50 to 200 | D (80%<D<100%) | 50 to 200 |  |
| Cc1sc2c(c1C)C(c1ccc(/C=C/CNC(=N)NO)cc1)=N[C@@H](CC(=O)OC(C)(C)C)c1nnc(C)n1-2 [Compound 9114] | 50 to 200 |  | C (50%<C<80) |  |  |
| COC(=O)C=Cc1ccc(C2=N[C@@H](CC(=O)OC(C)(C)C)c3nnc(C)n3-c3sc(C)c(C)c32)cc1 [Compound 9118] | 200 to 500 | < 50 |  |  |  |
| Cc1noc2c1-c1ccccc1C(c1ccc(/C=C/CN)cc1)=N[C@H]2CC(=O)OC(C)(C)C [Compound 9122] | > 500 | 50 to 200 |  |  |  |
| Cc1sc2c(c1C)C(c1ccc(C3CC3CNO)cc1)=N[C@@H](CC(=O)OC(C)(C)C)c1nnc(C)n1-2 (stereo partly shown) [Compound 9123] | < 50 | < 50 |  |  |  |
| Cc1sc2c(c1C)C(c1ccc(/C=C/C=N/O)cc1)=N[C@@H](CC(=O)OC(C)(C)C)c1nnc(C)n1-2 [Compound 9132-A] | 50 to 200 | < 50 | D (80%<D<100%) |  |  |
| Cc1sc2c(c1C)C(c1ccc(/C=C/C=N\O)cc1)=N[C@@H](CC(=O)OC(C)(C)C)c1nnc(C)n1-2 [Compound 9132-B] | 50 to 200 | 50 to 200 | D (80%<D<100%) |  |  |
| Cc1sc2c(c1C)C(c1ccc(C#CCN)cc1)=N[C@@H](Cc1nccs1)c1nnc(C)n1-2 [Compound 9135] |  | < 50 | B (20%<B<50%) | 50 to 200 |  |

| SMILES | IC50 (22RV1; [3]) [nM] | IC50 (LNCaP) [nM] | BRD4 degradation of 22RV1 (200 nM 5 h) (BRD4 [1]) | IC50 (22RV1; 22Rv1, 72 h) [nM] | BRD4 degradation of LNCap (200 nM 5 h) (BRD4 [2]) |
| --- | --- | --- | --- | --- | --- |
| Cc1sc2c(c1C)C(c1ccc(/C=C/CN)cc1)=N[C@@H](Cc1nccs1)c1nnc(C)n1-2 [Compound 9136] |  | < 50 | C (50%<C<80) | < 50 |  |
| Cc1sc2c(c1C)C(c1ccc(/C=C/CN)cc1)=N[C@@H](CC(=O)OC1(C)CC1)c1nnc(C)n1-2 [Compound 9137] | < 50 | < 50 | B (20%<B<50%) |  |  |
| Cc1sc2c(c1C)C(c1ccc(C3CC3CN)cc1)=N[C@@H](CC(=O)OC(C)(C)C)c1nnc(C)n1-2 (stereo partly shown) [Compound 9138] | > 500 | > 500 |  |  |  |
| Cc1noc2c1-c1ccccc1C(c1ccc(C#CCN)cc1)=N[C@H]2Cc1nccs1 [Compound 9141] | > 500 | > 500 |  |  |  |
| CC(=O)ONC/C=C/c1ccc(C2=N[C@@H](CC(=O)OC(C)(C)C)c3nnc(C)n3-c3sc(C)c(C)c32)cc1 [Compound 9144] | < 50 | < 50 |  |  |  |
| Cc1sc2c(c1C)C(c1ccc(C3CC3/C=N/O)cc1)=N[C@@H](CC(=O)OC(C)(C)C)c1nnc(C)n1-2 (stereo partly shown) [Compound 9148] | 50 to 200 | 50 to 200 | C (50%<C<80) |  |  |
| COC(=O)C[C@@H]1N=C(c2ccc(Cl)cc2)c2c(sc(C(=O)NCCOCCNC(=O)C[C@@H]3N=C(c4ccc(C#CCN)cc4)c4c(sc(C)c4C)-n4c(C)nnc43)c2C)-n2c(C)nnc21 [Compound 9157] | 200 to 500 | 200 to 500 |  |  |  |
| COc1ccc2c(c1)C(c1ccc(C#CCNC(=N)N)cc1)=N[C@@H](CC(=O)OC(C)(C)C)c1nnc(C)n1-2 [Compound 9159] |  | > 500 |  | > 500 |  |
| Cc1sc2c(c1C)C(c1ccc(C#CCN)cc1)=N[C@@H](Cc1nnc(C(C)C)o1)c1nnc(C)n1-2 [Compound 9160] |  | < 50 | C (50%<C<80) | < 50 |  |
| Cc1sc2c(c1C)C(c1ccc(/C=C/CNO)cc1)=N[C@@H](Cc1nccs1)c1nnc(C)n1-2 [Compound 9166] | < 50 | < 50 | A (A<20%) |  |  |
| COc1ccc2c(c1)C(c1ccc(/C=C/CNO)cc1)=N[C@@H](Cc1nccs1)c1nnc(C)n1-2.Cl [Compound 9167] |  | < 50 |  | < 50 | A (A<20%) |
| Cc1sc2c(c1C)C(c1ccc(/C=C/CN)cc1)=N[C@@H](Cc1nnc(C(C)C)o1)c1nnc(C)n1-2 [Compound 9168] | < 50 | < 50 |  |  |  |
| Cc1sc2c(c1C)C(c1ccc(C#CCNO)cc1)=N[C@@H](Cc1nccs1)c1nnc(C)n1-2.Cl [Compound 9173] | < 50 | < 50 | C (50%<C<80) |  |  |
| Cc1sc2c(c1C)C(c1ccc(/C=C/CNO)cc1)=N[C@@H](CC(=O)OC1(C)CC1)c1nnc(C)n1-2 [Compound 9184] | < 50 | < 50 | A (A<20%) |  |  |
| Cc1sc2c(c1C)C(c1ccc(/C=C/CNS(C)(=O)=O)cc1)=N[C@@H](CC(=O)OC(C)(C)C)c1nnc(C)n1-2 [Compound 9200] | 50 to 200 | 50 to 200 |  |  |  |
| COc1ccc2c(c1)C(c1ccc3c(c1)NC(=O)CC3)=N[C@@H](CC(=O)OC(C)(C)C)c1nnc(C)n1-2 [Compound 9211] |  | > 500 |  | > 500 |  |
| COC(=O)C[C@@H]1N=C(c2ccc(/C=C/CNO)c(F)c2)c2cc(OC)ccc2-n2c(C)nnc21 [Compound 9213] |  | < 50 |  | < 50 |  |
| COc1ccc2c(c1)C(c1ccc(/C=C/CNO)c(F)c1)=N[C@@H](CC(=O)O)c1nnc(C)n1-2 [Compound 9214] |  | > 500 |  | > 500 |  |
| COc1ccc2c(c1)C(c1ccc(/C=C/C=N\O)cc1)=N[C@@H](CC(=O)OC(C)(C)C)c1nnc(C)n1-2 [Compound 9221] |  | 200 to 500 |  | > 500 |  |
| COc1ccc2c(c1)C(c1ccc(/C=C/C=N/O)cc1)=N[C@@H](CC(=O)OC(C)(C)C)c1nnc(C)n1-2 [Compound 9222] |  | 50 to 200 |  | 200 to 500 |  |
| CCNC(=O)C[C@@H]1N=C(c2ccc(Cl)cc2)c2cc(OC)ccc2-n2c(C)nnc21 [I-BET-762, reference compound] | > 500 | > 500 |  |  |  |
